From ChEMBL document CHEMBL3137381, “MMV Box Onchocerca lienalis screening set”

Tests used:
Type in all cases: functional
Onchocerca lienalis [1] = assay: MMV: Percent motility assay at a compound concentration of 1.9e-7 M. Activity score legend: 3: Active, 2: Moderately active; 1: Inactive, 0: Toxic; details: at 0.19 µM
Onchocerca lienalis [2] = assay: MMV: Percent motility assay at a compound concentration of 1.25e-5 M. Activity score legend: 3: Active, 2: Moderately active; 1: Inactive, 0: Toxic; details: at 12.5 µM
Onchocerca lienalis [3] = assay: MMV: Percent motility assay at a compound concentration of 7.8e-7 M. Activity score legend: 3: Active, 2: Moderately active; 1: Inactive, 0: Toxic; details: at 0.78 µM
Onchocerca lienalis [4] = assay: MMV: Percent motility assay at a compound concentration of 3.1e-6 M. Activity score legend: 3: Active, 2: Moderately active; 1: Inactive, 0: Toxic; details: at 3.1 µM

| Compound | Motility (Onchocerca lienalis [1]) | Motility (Onchocerca lienalis [2]) | Motility (Onchocerca lienalis [3]) | Motility (Onchocerca lienalis [4]) |
| --- | --- | --- | --- | --- |
| CCOc1cc(CNC(C)C(O)c2ccccc2)cc(Cl)c1OCC (stereo unspecified) | 100% | 100% | 100% | 100% |
| OC(CNCC1CCCO1)Cn1c2ccc(Cl)cc2c2cc(Cl)ccc21 (stereo unspecified) | 100% | 100% | 100% | 100% |
| COc1ccc2nc(C)cc(Nc3ccccc3O)c2c1 | 100% | 100% | 100% | 100% |
| CCn1nc(-c2ccc(C(=O)OC)cc2)nc2c(=O)n(C)c(=O)nc1-2 | 100% | 100% | 100% | 100% |
| Cc1cc(NC(=O)c2cccc(C(F)(F)F)c2)n(-c2nc(-c3ccc4c(c3)OCO4)cs2)n1 | 100% | 100% | 100% | 100% |
| CC1(c2ccccc2)Nc2ccccc2-c2nc3ccccc3n21 (stereo unspecified) | 100% | 100% | 100% | 100% |
| COc1cccc(C2(C)Nc3ccccc3-c3nc4ccccc4n32)c1 (stereo unspecified) | 100% | 100% | 100% | 100% |
| CC(C)CNC(=O)c1c(N)n(CCc2ccccc2F)c2nc3ccccc3nc12 | 100% | 100% | 100% | 100% |
| CC(C)(C)CC(C)(C)NCC(O)COc1ccc(Cl)cc1Cl (stereo unspecified) | 100% | 100% | 100% | 100% |
| Cc1cccc(-n2ncc3c(O)nc(-n4nc(C)cc4NC(=O)c4cc5ccccc5o4)nc32)c1 | 100% | 0% | 100% | 100% |
| Oc1ccccc1CN1CCC2(CCCN(Cc3ccccc3F)C2)C1 (stereo unspecified) | 100% | 100% | 100% | 100% |
| COCCNCC(O)Cn1c2ccc(Cl)cc2c2cc(Cl)ccc21 (stereo unspecified) | 100% | 66.66% | 100% | 100% |
| O=C(NC1CCN(Cc2ccccc2)CC1)c1cc(-c2ccncc2)nc2ccc(Cl)cc12 | 100% | 100% | 100% | 100% |
| CCC(O)c1ccc(Br)cc1NC(=O)c1cccc(Cl)c1 (stereo unspecified) | 100% | 100% | 100% | 100% |
| COc1cc2cc(C(=O)Nc3ccccc3)c(N)nc2cc1OC | 100% | 100% | 100% | 100% |
| O=C(O)C(=O)O.Oc1ccccc1CN1CCN(C(c2ccccc2)c2ccccc2)CC1 | 100% | 100% | 100% | 100% |
| O=C(NC1CCCC1)c1ccc(N2CCC(NCc3cccc(C(F)(F)F)c3)CC2)cc1 | 100% | 100% | 100% | 100% |
| CCN(CC)CCn1c(=N)n(CC(O)c2ccc(Cl)c(Cl)c2)c2ccccc21.Cl (stereo unspecified) | 100% | 100% | 100% | 100% |
| CC(=O)Nc1nnc(SCc2c(C)cc(C(C)(C)C)cc2C)s1 | 100% | 100% | 100% | 100% |
| CN1CCN(c2c3c(c(C#N)c4nc5ccccc5n24)CCC3)CC1 | 100% | 100% | 100% | 100% |
| Cc1cc(Nc2cccc(F)c2)nc(NCc2ccccc2)n1 | 100% | 33.33% | 100% | 100% |
| CCOc1ccc(C2N(C)c3ccccc3N2C)cc1 | 100% | 100% | 100% | 100% |
| O=C(Nc1cccc(-c2nc3ccccc3[nH]2)c1)c1cccc(NC(=O)c2ccco2)c1 | 100% | 100% | 100% | 100% |
| O=C(NC1CCN(Cc2ccccc2)CC1)c1cc(-c2cccnc2)nc2ccc(Cl)cc12 | 100% | 100% | 100% | 100% |
| CCN(Cc1ccccc1)C1CCN(Cc2cc(Br)ccc2O)CC1.O=C(O)C(=O)O | 100% | 100% | 100% | 100% |
| COc1nc(Nc2ccc(C(C)C)cc2)nc(OC)n1 | 100% | 100% | 100% | 100% |
| CCN(CC)CCNc1ncnc2c1[nH]c1ccc(Br)cc12 | 100% | 100% | 100% | 100% |

| Compound | Motility (Onchocerca lienalis [1]) | Motility (Onchocerca lienalis [2]) | Motility (Onchocerca lienalis [3]) | Motility (Onchocerca lienalis [4]) |
| --- | --- | --- | --- | --- |
| CCOc1cccc(C(=O)Nc2ccc(-c3nc4ccccc4[nH]3)cc2)c1 | 100% | 100% | 100% | 100% |
| Cl.Clc1cc(Br)ccc1-c1ccc(CNCC2CCNCC2)o1 | 100% | 100% | 100% | 100% |
| Cc1cc(NC(=O)c2ccc(-c3ccccc3)cc2)no1 | 100% | 100% | 100% | 100% |
| CC(C)(C)C(=O)Nc1ccc(C(=O)Nc2cccc(-c3nc4ccccc4[nH]3)c2)cc1 | 100% | 100% | 100% | 100% |
| COc1ccc(-c2nonc2NC(=O)c2cccc(C)c2)cc1OC | 100% | 100% | 100% | 100% |
| O=C(Nc1ccc(N2CCN(Cc3ccccc3)CC2)cc1)c1cccs1.O=C(O)C(F)(F)F | 100% | 100% | 100% | 100% |
| O=C(Nc1ccc(N2CCCCC2)c(Cl)c1)c1ccc(Br)o1 | 100% | 100% | 100% | 100% |
| O=C1CC(O)(C(F)(F)C(F)(F)F)Oc2ccccc21 (stereo unspecified) | 100% | 100% | 100% | 100% |
| COc1cc(SC)ccc1C(=O)N1CCCC(C)C1 (stereo unspecified) | 100% | 100% | 100% | 100% |
| CC(C)(C)c1ccc(C(=O)Nc2nc3ccccc3s2)cc1 | 100% | 100% | 100% | 100% |
| CC1CC(C)CN(C(=O)c2ccc(Cl)cc2Cl)C1 (stereo unspecified) | 100% | 100% | 100% | 100% |
| OC(CNC1CCCC1)Cn1c2ccccc2c2ccccc21 (stereo unspecified) | 100% | 100% | 100% | 100% |
| COc1ccc(C2N(C)c3ccccc3N2C)cc1 | 100% | 100% | 100% | 100% |
| Cc1ccc(NC(=O)Nc2cccc(Cl)c2)cc1F | 100% | 100% | 100% | 100% |
| CC(C)OCc1cc(CN2CCN(c3cccc(Cl)c3)CC2)c(O)c2ncccc12 | 100% | 0% | 100% | 100% |
| O=c1nc(C=Cc2ccc(Cl)cc2)oc2ccccc12 | 100% | 100% | 100% | 100% |
| O=C(NCc1ccco1)C1CCN(S(=O)(=O)c2ccc(Br)cc2)CC1 | 100% | 100% | 100% | 100% |
| Clc1ccc2[nH]c3c(NCCCN4CCOCC4)ncnc3c2c1 | 100% | 100% | 100% | 100% |
| COc1ccc(Nc2nc(NCc3ccccc3)c3ccccc3n2)cc1 | 100% | 33.33% | 100% | 100% |
| COc1cc2c(cc1OC)C1=NNC(=O)C1=NC(C)(C)C2 | 100% | 100% | 100% | 100% |
| Oc1c2c(nc3cc(-c4ccccc4)nn13)CCCC2 | 100% | 100% | 100% | 100% |
| CCCN(CCC)CCCNC(=O)c1cc2c(-c3ccc(OC)c(OC)c3)nn(C)c2s1 | 100% | 100% | 100% | 100% |
| Cc1cc(N2CCN(C3CCCC3)CC2)n2c(nc3ccccc32)c1C#N | 100% | 100% | 100% | 100% |
| CCCCOc1ccc(C(=O)Nc2cc(C)on2)cc1 | 100% | 100% | 100% | 100% |
| CCc1ccc(Nc2cc(C)nc3nc(C)nn23)cc1 | 100% | 100% | 100% | 100% |
| Br.CCN(CC)S(=O)(=O)c1ccc(-c2csc(Nc3ccc(C)c(C)c3)n2)cc1 | 100% | 100% | 100% | 100% |
| C=CCc1c(C)nc2ccccc2c1O | 100% | 100% | 100% | 100% |
